Assay results as given in paper PMC8102702, “Azithromycin Exhibits Activity Against Pseudomonas aeruginosa in Chronic Rat Lung Infection Model” (Frontiers in Microbiology, 2021).
Converted amounts (≈) assume the structure as drawn. Where two headings read alike, the source gives them in different places.

What was measured:
[1] = tested on: P. aeruginosa PAO1 biofilm; assay: In vitro biofilm formation inhibition, crystal violet, 96-well plate; assay type: cell-based; settings: Pseudomonas aeruginosa; P. aeruginosa PAO1, 24 h exposure, LB broth with 0.2% glucose; read-out: biofilm preventive concentration (BPC50)
Procedure: The effect of azithromycin and clindamycin on P. aeruginosa biofilm formation was assessed as described previously ([Sharma et al., 2009]; [Barman et al., 2016]; [Kumar et al., 2019]). Briefly, the overnight-grown culture of P. aeruginosa PAO1 in TSB was pelleted and resuspended in Luria-Bertani broth containing 0.2% glucose (10^7 CFU/ml). The bacterial suspension was spiked with different concentrations (16-0.015 μg/ml) of azithromycin or clindamycin in 96-well plates and incubated at 26 ± 2°C. The effects of azithromycin and clindamycin on inhibition of biofilm formation were assayed after 24 h of exposure. The wells were emptied and washed three times with phosphate-buffered saline (PBS; pH 7.3), and the adherent biofilm was stained with 200 μl of 1% crystal violet for 30 min and rinsed with distilled water. The adherent biofilm in the wells was solubilized with 200 μl of 30% acetic acid, and the optical density at 600 nm (OD600) was measured to quantify the formed biofilms. Each experiment was performed thrice, and the mean percent inhibition and standard deviations were calculated. The relative inhibition of biofilms, expressed as a mean percentage, was determined using the following formula: Percentinhibition=100-{([…]-controlwell)×100}

[2] = tested on: pre-formed biofilm of P. aeruginosa PAO1; assay: Activity on pre-formed biofilm (eradication), crystal violet; assay type: cell-based; settings: Pseudomonas aeruginosa; pre-formed 24 h biofilm of P. aeruginosa PAO1, 24 h exposure; read-out: minimum biofilm eradication concentration (MBEC50)
Procedure: The efficacy of azithromycin was also evaluated on a pre-formed biofilm of P. aeruginosa PAO1 to assess the therapeutic or eradicative effect of azithromycin as described earlier ([Macia et al., 2014]). The bacterial suspension was prepared as described above and inoculated at 200 μl/well in a 96-well plate. After 24 h of incubation, the wells were emptied and washed with PBS and then spiked with different concentrations (16–0.015 μg/ml) of azithromycin prepared in LB broth containing 0.2% glucose. The plate was further incubated for 24 h, and the effect of azithromycin was assessed as described above.

[3] = tested on: P. aeruginosa PA-14 planktonic cells; assay: Time-kill kinetic study, planktonic cells; assay type: cell-based, Pseudomonas aeruginosa; settings: P. aeruginosa PA-14, LB media
Procedure: (§1) To further evaluate the effect of azithromycin on planktonic cells and biofilm formation, a time-kill kinetic study was performed. Briefly, 10 ml of LB broth containing 0.2% glucose and a sterile 2-cm-long piece of the catheter were pre-warmed at 26 ± 2°C in reaction tubes, and the different concentrations of azithromycin (2 or 16 μg/ml) were added to tubes. The bacterial inoculum of P. aeruginosa PA-14 was prepared as described above and added to the tubes to achieve a final inoculum of ∼1 × 10^5 CFU/ml. The tubes were incubated at 26 ± 2°C. The planktonic cell counts were determined at various time-points by serial dilution plating onto a trypticase soy agar plate. After 24 h of incubation, the catheter pieces from each tube were removed, non-adherent bacteria were washed from the catheter pieces, and the number of CFU embedded in biofilm per catheter was determined as described earlier ([Kumar et al., 2016], [2019]). The experiment was performed in triplicate, and the mean log10 killing of planktonic cells and biofilm inhibition were calculated for each concentration. To further assess biofilm formation in the absence (drug-free control) or presence of azithromycin, the catheter pieces were also sectioned and processed for scanning electron microscopy (SEM).

[4] = tested on: P. aeruginosa PA-14 biofilm; assay: Solid-surface biofilm formation on catheter piece (CFU, SEM); assay type: cell-based, Pseudomonas aeruginosa; settings: P. aeruginosa PA-14, 24 h, azithromycin 2 or 16 μg/ml
Procedure: as §1

[5] = tested on: pelA promoter-lacZ in recombinant P. aeruginosa G2; assay: β-galactosidase activity of pel promoter-lacZ transcriptional fusion; assay type: cell-based, Pseudomonas aeruginosa
Procedure: To understand the molecular mechanism of biofilm inhibition, a recombinant mutant P. aeruginosa G2-containing promoterless lacZ gene under promoter control of pelA was gifted to us by Prof. Kilter ([Sakuragi and Kolter, 2007]). The β-galactosidase activity was performed in the absence and presence of different concentrations of azithromycin and levofloxacin, as described earlier ([Sakuragi and Kolter, 2007]).

[6] = tested on: P. aeruginosa G2; assay: MIC; assay type: cell-based; settings: Pseudomonas aeruginosa
[7] = tested on: P. aeruginosa PA-14; assay: Chronic rat lung (biofilm) infection model, lung bacterial load; assay type: in vivo, Sprague-Dawley rats; settings: 75 mg/kg PO, q24h for 4 days, started 3 days post-infection; lungs 22 h after last dose
Source text: Specific pathogen-free female Sprague–Dawley (SD) rats, weighing 200 ± 20 g (age 8 weeks), were used for the study. The rats were procured from Vivo Biotech Pvt. Ltd., Hyderabad, India. The animals were housed in a pathogen-free animal facility and allowed 5 days of acclimatization in the study room before initiating the experiment. Feed and water were provided ad libitum during acclimatization and the study periods. All animal studies were approved by the institutional animal ethics committee. The animal studies were conducted under the strict guidelines of the committee for the Purpose of Control and Supervision of Experiments on Animals, Ministry of Environment, Forests and Climate Change, New Delhi, Government of India, and under the supervision of the institutional committee.
To determine the in vivo efficacy of azithromycin, a chronic biofilm model of P. aeruginosa was established in SD rats, which mimic the human chronic infection ([Hoover et al., 2017]; [Chawanpaiboon et al., 2019]). A semisolid 0.25% w/v agar beads suspension was prepared and autoclaved a day before the in vivo experiment and stored overnight at 4°C. […] The rats were then euthanized 22 h after the last dose, and the lungs’ bacterial load was determined by plating diluted lung homogenates on MHA.

[8] = Pharmacokinetics in plasma and lung ELF of P. aeruginosa-infected rats; settings: rat, in vivo, po, 75 mg/kg; for Kp: Sprague-Dawley, 75 mg/kg PO, infected rats
Procedure: The concentrations of azithromycin were assessed in the plasma and lung epithelial lining fluid (ELF) of the rats infected with P. aeruginosa PA-14. Intratracheal infection in rats was performed as described above. A single dose of 75 mg/kg of azithromycin was administered orally through gavage. Blood and broncho-alveolar lavage (BAL) fluid (with 2 ml of normal saline wash) were collected at different time-points up to 24 h post-dose from each animal by gross dissection. For the collection of BAL, 2 ml of sterile cold PBS was infused into the animal through the trachea and into the bronchial cavity and aspirated out. Plasma was harvested from blood samples by centrifugation. The azithromycin concentrations in plasma and BAL samples were determined using liquid chromatography with tandem mass spectrometry. The apparent volume of ELF (VELF) in BAL fluid was determined by the urea dilution method using the urea assay kit from BioChain (Hayward, CA). The concentration of azithromycin in ELF (CELF) was determined as
where CBAL is the measured concentration of azithromycin in BAL fluid.

[9] = tested on: QS molecule (3-O-C12 HSL) of P. aeruginosa; assay: QS molecule in epithelial lining fluid of infected rats; assay type: in vivo; settings: azithromycin treated rats vs placebo control, 7 days post-infection

For `CC[C@H]1OC(=O)[C@H](C)[C@@H](O[C@H]2C[C@@](C)(OC)[C@@H](O)[C@H](C)O2)[C@H](C)[C@@H](O[C@@H]2O[C@H](C)C[C@H](N(C)C)[C@H]2O)[C@](C)(O)C[C@@H](C)CN(C)[C@H](C)[C@@H](O)[C@]1(C)O` [azithromycin], the IC50 [1] was 0.122 µg/mL (≈ 0.163 µM), the IC50 [2] was 7.49 µg/mL (≈ 10 µM) and the “reduction in planktonic cell counts as compared to the drug-free control” value ([3]; 6 h) was 1.86 log10. The “effect on planktonic cell counts” value ([3]; 24 h post-incubation) was “no effect”, the “solid-surface biofilm formation on catheter pieces” value [4] was “no solid-surface biofilm formed” and the IC50 ([5]; Pseudomonas aeruginosa, read-out: inhibition of β-galactosidase activity, IC50) was 0.17 µg/mL (≈ 0.227 µM). The MIC [6] was over 32 ng/mL, the “reduction in bacterial counts as compared to the placebo control” value [7] was 1.67 log10 and the Kp ([8]; read-out: lung ELF/plasma ratio of AUCinf) was 86. It also gave a Kp ([8]; read-out: lung ELF/plasma ratio of Cmax) of 81, a Cmax [8] of 950 ± 300 ng/mL and a Tmax [8] of 2 h. The “level of QS molecules in the ELF” value [9] was “comparatively reduced level”.
For `C[C@H]1COc2c(N3CCN(C)CC3)c(F)cc3c(=O)c(C(=O)O)cn1c23` [levofloxacin], the “effect on β-galactosidase activity” value ([5]; P. aeruginosa G2, sub-MIC concentrations) was “did not influence” and the MIC [6] was 1 ng/mL (≈ 0.00277 µM).
